Read-outs that look alike come from different tables or passages of the source.
Experiments:
[1] = Solubilities of gases in water, plasma, blood and tissues; type: physicochemical
From the text: The feasibility of gaseous ^129Xe injection, particularly for arterial injections, may appear problematic. For example, it is known that arterial injections of air can lead to an undesirable air embolus. Although with intravenous (IV) injection the introduction of air is less of a concern, great care is typically taken to avoid such occurrences. The injection of CO2 is successful because of its high solubility in blood and the body's unique ability to remove it. The solubility of CO2 in blood and plasma can be difficult to measure because it is chemically metabolized.
Nonetheless, it is believed that the solubility that is of primary interest for the discussion herein and that the CO2 metabolism can be disregarded for the purposes of this comparison.

[2] = Bubble dissipation model (Krogh's coefficient) for gas bubbles in blood
From the text: To better understand bubble dissipation, one can model a string of contiguous bubbles as a cylinder to look at the diffusion of the gas out of the “cylinder” into the surrounding fluid to analyze how the bubble volume or radius decreases with time. Presser et al., in modeling a simulation as stated above, noted that the bubble radius “r” versus time can be represented by the equation: dr/dt=−KΔP/[rln(R/r)] where “K” is Krogh's coefficient (the product of solubility “S” and diffusion coefficient “D” of the gas in the surrounding fluid), “ΔP” is the pressure difference between gas in the bubbles and gas in the alveoli and “R” is the distance from the center of the bubbles to the inner edge of the adjacent alveoli.
That is, for comparative analysis, it is believed that one can evaluate the Krogh's coefficient (S×D) for Xe relative to air. The diffusion coefficient is substantially the same and can be cancelled out. For example, Xe in H2O is about 1.9×10^−5 cm^2/s while methane and water itself are at 2 and 2.3×10^−5 cm^2/s, respectively. Thus, solubility “S” becomes the important factor.

[3] = cited from earlier work
[4] = Relaxation of hyperpolarized gas on container surface materials (GE180 glass, high purity aluminum); type: physicochemical; details: for ψ (relaxivity of GE180 glass for the gas): from T1 and A/V=3/R
From the text: In order to calculate optimal capillary lengths, relaxivity values or estimates are needed. As a simple estimate, one can consider that an 180 cc spherical chamber of GE180 glass has a relaxation times of about 40 hr for ^3He and about 2 hr for ^129Xe. Knowing the relationship of “A/V=3/R” for a sphere, one can determine the relaxivity ψ of GE180 glass for both gases. The diffusion coefficients are noted for reference below.
The gas contacting surfaces of the injector head 300 can be formed of or coated with suitable materials to inhibit the depolarization of the gas as it travels therethrough. Examples of suitable materials include, but are not limited to, alumminosilicate glass, certain polymer materials or metallic materials or other materials as described herein. Surface coatings, such as a sputter coating of a non-depolarizing material of high purity silver or aluminum. The relaxivity of high purity aluminum for ^129Xe has been recently measured to be about 0.00225 cm/min. Metals other than aluminum which can be used include indium, gold, zinc, tin, copper, bismuth, silver, niobium, and oxides thereof. Preferably, “high purity” metals are employed (i.e., metals which are substantially free of paramagnetic or ferrous impurities) because even minute amounts of undesirable materials or contaminants may degrade the surface. Preferably, the metal is chosen such that it is well below 1 ppm in ferrous or paramagnetic impurity content.

[5] = noted for reference; cited from earlier work
[6] = Inhalation (breath-hold) delivery of hyperpolarized 129Xe: uptake and delivery to the brain; type: in vivo, human
From the text: In addition, due to the high solubility of ^129Xe in blood and tissues, vascular and tissue imaging using inhaled hyperpolarized ^129Xe has also been proposed. Generally described, during inhalation delivery, a quantity of hyperpolarized ^129Xe is inhaled by a subject (a subject breathes in the ^129Xe gas) and the subject then holds his or her breath for a short period of time, i.e., a “breath-hold” delivery. This inhaled ^129Xe gas volume then exits the lung space and is generally taken up by the pulmonary vessels and associated blood or pulmonary vasculature at a rate of approximately 0.3% per second. For example, for an inhaled quantity of about 1 liter of hyperpolarized ^129Xe, an estimated uptake is about 3 cubic centimeters per second or a total quantity of about 40 cubic centimeters of ^129Xe over about a 15 second breath-hold period. Accordingly, it has been noted that such uptake can be used to generate images of pulnonary vasculature or even organ systems more distant from the lungs. See co-pending and co-assigned U.S. patent application Ser. No. 09/271,476 to Driehuys et al, entitled Methods for Imaging Pulmonary and Cardiac Vasculature and Evaluating Blood Flow Using Dissolved Polarized ^129Xe. Although primarily directed to inhalation delivery, this application also proposes injection of ^129Xe to replace conventional radioactive tracers in perfusion imaging methods. The contents of this application are hereby incorporated by reference as if recited in full herein.
Many researchers are also interested in the possibility of using inhaled ^129Xe for imaging white matter perfusion in the brain, renal perfusion, and the like. While the inhaled delivery ^129Xe methods are suitable, and indeed, preferable, for many MRI applications for several reasons, such as the non-invasive characteristics attendant with such a delivery to a human subject, it may not be the most efficient method to deliver a sufficiently large dose to more distant (away from the pulmonary vasculature which is proximate to the lungs) target areas of interest. In addition, due to the dilution of the inhaled ^129Xe along the perfusion delivery path, relatively large quantities of the hyperpolarized ^129Xe are typically inhaled in order to deliver a small fraction of the gas to the more distal target sites or organ systems. For example, the brain typically receives only about 13% of the total blood flow in the human body. Thus, the estimated 40 cubic centimeter quantity of hyperpolarized ^129Xe taken up into the pulmonary vessels from the 1-liter inhalation dose can be reduced to only about 5 cubic centimeters by the time it reaches the brain.
Further, the hyperpolarized state of the gas is sensitive and can decay relatively quickly due to a number of relaxation mechanisms. Indeed, the relaxation time (generally represented by a decay constant “T1”) of the ^129Xe in the blood, absent other external depolarizing factors, is estimated at T1=4.0 seconds for venous blood and T1=6.4 s for arterial blood at a magnetic field strength of about 1.5 Tesla. See Wolber et al., Spin-lattice relaxation of laser-polarized xenon in human blood, 96 Proc. Natl. Acad. Sci. USA, pp. 3664-3669 (March 1999). (The more oxygenated arterial blood provides increased polarization life over the relatively de-oxygenated venous blood). […]

[7] = Relaxation time (T1) of polarized 129Xe in blood and lung; type: physicochemical, human
From the text: Further, the hyperpolarized state of the gas is sensitive and can decay relatively quickly due to a number of relaxation mechanisms. Indeed, the relaxation time (generally represented by a decay constant “T1”) of the ^129Xe in the blood, absent other external depolarizing factors, is estimated at T1=4.0 seconds for venous blood and T1=6.4 s for arterial blood at a magnetic field strength of about 1.5 Tesla. See Wolber et al., Spin-lattice relaxation of laser-polarized xenon in human blood, 96 Proc. Natl. Acad. Sci. USA, pp. 3664-3669 (March 1999). (The more oxygenated arterial blood provides increased polarization life over the relatively de-oxygenated venous blood). Therefore, for about a 5 second transit time (the time estimate for the uptaken hyperpolarized ^129Xe to travel to the brain from the pulmonary vessels), the ^129Xe polarization is reduced to about 37% of its original value. In addition, the relaxation time of the polarized ^129Xe in the lung itself is typically about 20-25 seconds due to the presence of paramagnetic oxygen. Accordingly, ^129Xe taken up in the latter portion of the breath-hold cycle can decay to have only about 50% of the starting polarization (the polarization level at the initial portion of the breath hold cycle). Thus, generally stated, the average polarization of ^129Xe entering the pulmonary blood can be estimated to be at about 75% of the starting inhaled polarization value. Taking these effects into account, the delivery to the brain of the inhaled ^129Xe can be estimated as about 1.4 cubic centimeters of the inhaled one-liter dose of ^129Xe polarized to the same level as the inhaled gas (0.75×0.37×5 cc's). […] Nonetheless, at least one researcher has made coarse images of ^129Xe in rat brains, but this inhalation administration delivery required large quantities of ^129Xe to be inhaled over a relatively long period of time. […] Unfortunately, the extended inhalation time period and/or associated large quantity dosage of the gas may not be desirable for certain clinical applications.

[8] = NMR spectra after polarized 129Xe gas injection into the vein of a rabbit; type: in vivo
From the text: The signal strength at 8 seconds (FIG. 10P) being about 0.65 that of the original signal (FIG. 10A).
The rabbit survived the experiment. […] The signal strength at 8 seconds (FIG. 10P) being about 0.65 that of the original signal (FIG. 10A). The rabbit was placed in a whole body imager so that the exact location of the signal within the rabbit's body is not disclosed in the spectra. It is noted that a large quantity of the injected gas remained in the gas phase upon injection, most likely due to the size of the lumen used, about 0.5 mm.

[9] = inhalation, breath-hold; cited from earlier work
[10] = cited from earlier work; remark: listed apart in the source

[Xe] [Xe, xenon]
Solubility ratio of xenon gas to nitrogen gas in blood ([1]; 0.167/[…], air approximated as nitrogen): ~11 | Solubility relative to air ([1]; in blood, compared with air): about 10 times | Time for a 30 μm radius bubble to dissipate ([2]; 30 μm radius bubble): about 20 seconds | Bubble dissipation rate (dr/dt) ([2]; estimated from solubility ratio to air in blood): −1.5 μm/s | Diffusion coefficient in H2O [3]: about 1.9×10^−5 cm^2/s

[3He] [^3He, reference compound]
ψ (relaxivity of GE180 glass for the gas) [4]: 8.1e-06 cm/s | D (diffusion coefficient of the gas) [5]: 2.05 cm^2/s

[129Xe] [^129Xe]
Quantity by the time it reaches the brain ([6]; from 40 cc taken up of 1-liter inhalation dose, brain receives about 13% of blood flow): about 5 cubic centimeters | Quantity delivered to remote target (brain) as fraction of inhaled 129Xe ([6]; inhalation): about 0.14% | Total quantity taken up ([6]; inhaled about 1 liter, about 15 second breath-hold): about 40 cubic centimeters | Delivery to the brain, as 129Xe polarized to the same level as the inhaled gas ([6]; inhaled one-liter dose (0.75×0.37×5 cc's)): about 1.4 cubic centimeters | Estimated uptake ([6]; inhaled quantity about 1 liter): about 3 cubic centimeters per second | Polarization remaining relative to original value after transit to the brain ([7]; about 5 second transit time from pulmonary vessels to brain): about 37% | Average polarization of 129Xe entering the pulmonary blood, of starting inhaled polarization ([7]; inhalation, breath-hold): about 75% | Polarization of 129Xe taken up in the latter portion of the breath-hold cycle, of starting polarization ([7]; latter portion of breath-hold): about 50% | Bubble dissipation rate relative to air in blood ([2]; in blood, faster than air): about 11 times | ψ (relaxivity of GE180 glass for the gas) [4]: 0.00017 cm/s | Relaxivity of high purity aluminum for 129Xe ([4]; high purity aluminum surface): about 0.00225 cm/min | Survival of the animal ([8]; about 3 cc gas injected into vein of rabbit): survived | Phase of the injected gas in the bloodstream during acquisition ([8]; about 3 cc into vein of rabbit, about 8 seconds): remained substantially in the gas phase | T1 of the gas in the blood ([8]; gas phase in the bloodstream, rabbit): at least 20 seconds | Rate of uptake of inhaled gas by pulmonary vessels and blood [9]: approximately 0.3 % per second | Relaxation time T1 in arterial blood ([10]; arterial blood, about 1.5 Tesla): 6.4 s | Relaxation time in the lung ([10]; in the lung, presence of paramagnetic oxygen): 20 to 25 s | Relaxation time T1 in venous blood ([10]; venous blood, about 1.5 Tesla): 4.0 s | D (diffusion coefficient of the gas) [5]: 0.065 cm^2/s

C [methane]
Diffusion coefficient in H2O ([3]; exponent shared with the following value): 2 ×10^−5 cm^2/s

O [water]
Diffusion coefficient in H2O [3]: 2.3×10^−5 cm^2/s

From patent US7560096B2, “Diagnostic procedures using direct injection of gaseous hyperpolarized 129Xe and associated systems and products” (Medi-Physics, Inc, priority 2000, dated 2009)
